These molecules were tested on A549-NF-κB-SEAP reporter cells (assay: Inhibition of NF-κB-induced inflammation ([…] NINA Instant Assay, SEAP reporter)). Details: NF-κB inflammation assay.
Assay type: cell-based
Excerpt: For the determination of anti-inflammatory activity of the compounds the […]® NINA Instant Assay from Cell Culture Service GmBH was used. This assay is based on recombinant A549-NF-κB-SEAP reporter cells preseeded in 96-well flat bottom plates. As the transfected reportergen for SEAP (secreted embryonic alkaline phosphatase) is under transcriptional control of a NF-κB-responsive element, the expression of this reporter is activated upon stimulation with TNF-α. SEAP secretion into the culture supernatant can be detected by the chemiluminescent substrate CSPD®. Test compounds that inhibit the NF-κB activation show reduced SEAP activity and reduced luminescent readout.
Following 18 h of reactivation at 37° C., 5% CO2 and 90% relative humidity, the cells were incubated with 0.01 up to 100 μM of test compound for 4.5 h before stimulation with 2 ng/ml TNF-α. After stimulation with TNF-α for 22 h endogenous phosphatases were inactivated and CSPD® substrate was supplied for 40 min. SEAP activity then was quantified by measuring luminescence as relative light units (RLU) using a Tecan Ultra reader. Each data point was recorded in quadruplicates and EC50 values were calculated via fitting function and the Microsoft Excel Solver.

SMILES	Biological activity (inhibition in the NF-κB inflammation assay)
N=C(NC(=O)c1csc(NC(=O)c2ccccc2C2CCCCC2)n1)Nc1nc2ccccc2[nH]1 [compound 45]	+++ (“+++” stands for 90-100% inhibition)
Cn1c(NC(=O)c2csc(NC(=O)c3ccccc3OC(F)(F)F)n2)nc2ccccc21 [compound 46]	+++ (“+++” stands for 90-100% inhibition)
NC(=Nc1nc2ccccc2[nH]1)NC(=O)c1csc(NC(=O)Nc2ccccc2OC(F)(F)F)n1 [compound 54]	+++ (“+++” stands for 90-100% inhibition)
Cc1cc2nc(NC(=O)c3coc(NC(=O)c4ccccc4OC(F)(F)F)n3)[nH]c2cc1C [compound 40]	+++ (“+++” stands for 90-100% inhibition)

Same assay, conditions: compounds of formula (I); TNF-α stimulated reporter cells; test concentration not given

SMILES	Biological activity (NF-κB inflammation assay, inhibition)
O=C(CCC1CCCC1)N1CCC(c2nc(C(=O)N3CCN(c4cccc(C(F)(F)F)c4)CC3)cs2)CC1 [compound 224]	+ (“+” stands for 50-80% inhibition)
O=C(c1csc(C2CCN(S(=O)(=O)c3ccc(Br)s3)CC2)n1)N1CCN(c2cccc(C(F)(F)F)c2)CC1 [compound 203]	+ (“+” stands for 50-80% inhibition)
O=C(O)C1=C(C(=O)N2CCC(c3nc(C(=O)N4CCN(c5cccc(C(F)(F)F)c5)CC4)cs3)CC2)CCC1 [compound 188]	+ (“+” stands for 50-80% inhibition)
O=C(c1csc(C2CCN(c3ccc4c(c3)OCO4)CC2)n1)N1CCN(c2cccc(C(F)(F)F)c2)CC1 [compound 156]	+ (“+” stands for 50-80% inhibition)
COc1nc(OC)nc(N2CCN(C(=O)c3csc(C4CCN(Cc5ccccc5)CC4)n3)CC2)n1 [compound 120]	+ (“+” stands for 50-80% inhibition)
N#Cc1ccc(CN2CCC(c3nc(C(=O)N4CCN(c5cccc(C(F)(F)F)c5)CC4)cs3)CC2)cc1 [compound 166]	+ (“+” stands for 50-80% inhibition)
O=C(c1csc(C2CCN(C(=O)c3cc4ccccc4s3)CC2)n1)N1CCN(c2cccc(C(F)(F)F)c2)CC1 [compound 213]	++ (“++” means 80-90%)
COc1cccc(N2CCC(c3nc(C(=O)N4CCN(c5cccc(C(F)(F)F)c5)CC4)cs3)CC2)c1 [compound 178]	+ (“+” stands for 50-80% inhibition)
O=C(O)c1cccnc1C(=O)N1CCC(c2nc(C(=O)N3CCN(c4cccc(C(F)(F)F)c4)CC3)cs2)CC1 [compound 183]	+ (“+” stands for 50-80% inhibition)
O=C(c1csc(C2CCN(Cc3ccc(Br)cc3)CC2)n1)N1CCN(c2cccc(C(F)(F)F)c2)CC1 [compound 174]	+ (“+” stands for 50-80% inhibition)
O=C(O)c1cccc(O)c1C(=O)N1CCC(c2nc(C(=O)N3CCN(c4cccc(C(F)(F)F)c4)CC3)cs2)CC1 [compound 186]	+ (“+” stands for 50-80% inhibition)
O=C(c1csc(C2CCN(c3ccc(C(F)(F)F)cc3)CC2)n1)N1CCN(c2cccc(C(F)(F)F)c2)CC1 [compound 155]	+ (“+” stands for 50-80% inhibition)
COc1cc(C(=O)N2CCC(c3nc(C(=O)N4CCN(c5cccc(C(F)(F)F)c5)CC4)cs3)CC2)cc(OC)c1OC [compound 225]	+ (“+” stands for 50-80% inhibition)
O=C(c1ccc(C(F)(F)F)c(F)c1)N1CCC(c2nc(C(=O)N3CCN(c4cccc(C(F)(F)F)c4)CC3)cs2)CC1 [compound 215]	+++ (“+++” stands for 90-100% inhibition)
O=C(c1csc(C2CCN(Cc3ccc(-c4ccccc4)cc3)CC2)n1)N1CCN(c2cccc(C(F)(F)F)c2)CC1 [compound 167]	+ (“+” stands for 50-80% inhibition)
O=C(Cc1ccc(F)cc1)N1CCC(c2nc(C(=O)N3CCN(c4ccccn4)CC3)cs2)CC1 [compound 237]	+ (“+” stands for 50-80% inhibition)

SMILES	Biological activity (NF-κB inflammation assay, inhibition)
COc1ccc(Cl)cc1S(=O)(=O)N1CCC(c2nc(C(=O)N3CCN(c4cccc(C(F)(F)F)c4)CC3)cs2)CC1 [compound 202]	++ (“++” means 80-90%)
O=C(c1csc(C2CCN(S(=O)(=O)c3ccc(Br)cc3)CC2)n1)N1CCN(c2cccc(C(F)(F)F)c2)CC1 [compound 199]	+ (“+” stands for 50-80% inhibition)
COc1nc(OC)nc(N2CCN(C(=O)c3csc(C4CCN(Cc5ccc(Br)cc5)CC4)n3)CC2)n1 [compound 121]	+ (“+” stands for 50-80% inhibition)
CCCCN1CCN(C(=O)c2csc(C3CCN(C(=O)Cc4ccc(F)cc4)CC3)n2)CC1 [compound 231]	+ (“+” stands for 50-80% inhibition)
O=C(c1csc(C2CCN(Cc3ccc(F)cc3Cl)CC2)n1)N1CCN(c2cccc(C(F)(F)F)c2)CC1 [compound 171]	+ (“+” stands for 50-80% inhibition)
CC(c1cc2ccccc2[nH]1)N(C)C(=O)c1csc(C2CCN(C(=O)c3ccccc3OC(F)(F)F)CC2)n1 (stereo not shown) [compound 145]	+ (“+” stands for 50-80% inhibition)
COc1nc(OC)nc(N2CCC(c3nc(C(=O)N4CCN(c5cccc(C(F)(F)F)c5)CC4)cs3)CC2)n1 [compound 176]	+ (“+” stands for 50-80% inhibition)
CC(=O)Nc1ccc(S(=O)(=O)N2CCC(c3nc(C(=O)N4CCN(c5cccc(C(F)(F)F)c5)CC4)cs3)CC2)cc1 [compound 207]	+ (“+” stands for 50-80% inhibition)
COc1cc(N2CCN(C(=O)c3csc(C4CCN(C(=O)c5ccccc5OC(F)(F)F)CC4)n3)CC2)nc(OC)n1 [compound 130]	+ (“+” stands for 50-80% inhibition)
O=C(c1csc(C2CCN(S(=O)(=O)c3ccc(OC(F)(F)F)cc3)CC2)n1)N1CCN(c2cccc(C(F)(F)F)c2)CC1 [compound 205]	+ (“+” stands for 50-80% inhibition)
COc1ccccc1N1CCN(C(=O)c2csc(C3CCN(C(=O)Cc4ccc(F)cc4)CC3)n2)CC1 [compound 229]	+ (“+” stands for 50-80% inhibition)
O=C(O)C=CC(=O)N1CCC(c2nc(C(=O)N3CCN(c4cccc(C(F)(F)F)c4)CC3)cs2)CC1 [compound 191]	+ (“+” stands for 50-80% inhibition)
O=C(c1csc(C2CCN(Cc3ccc(F)cc3)CC2)n1)N1CCN(c2cccc(C(F)(F)F)c2)CC1 [compound 170]	+ (“+” stands for 50-80% inhibition)
N#Cc1ccc(C(=O)N2CCC(c3nc(C(=O)N4CCN(c5cccc(C(F)(F)F)c5)CC4)cs3)CC2)cc1 [compound 70]	++ (“++” means 80-90%)
O=C(c1csc(C2CCN(Cc3cc(C(F)(F)F)cc(C(F)(F)F)c3)CC2)n1)N1CCN(c2cccc(C(F)(F)F)c2)CC1 [compound 175]	+ (“+” stands for 50-80% inhibition)
O=C(c1csc(C2CCN(C(=O)c3ccco3)CC2)n1)N1CCN(c2cccc(C(F)(F)F)c2)CC1 [compound 230]	+ (“+” stands for 50-80% inhibition)

Same assay, conditions: compounds of formula (II); TNF-α stimulated reporter cells; test concentration not given

SMILES	Biological activity (NF-κB inflammation assay, inhibition)
O=C(Nc1nc(C(=O)N2CCN(c3cccc(C(F)(F)F)c3)CC2)cs1)c1ccc(C(F)(F)F)c(F)c1 [compound 34]	+++ (“+++” stands for 90-100% inhibition)
O=C(CCC1CCCC1)N1CCN(c2nc(C(=O)N3CCN(c4cccc(C(F)(F)F)c4)CC3)cs2)CC1 [compound 37]	+++ (“+++” stands for 90-100% inhibition)
COc1ccccc1C(=O)N1CCN(c2nc(C(=O)N3CCN(c4cccc(C(F)(F)F)c4)CC3)cs2)CC1 [compound 38]	+++ (“+++” stands for 90-100% inhibition)
N#Cc1ccc(CN2CCN(c3nc(C(=O)N4CCN(c5cccc(C(F)(F)F)c5)CC4)cs3)CC2)cc1 [compound 62]	+++ (“+++” stands for 90-100% inhibition)
O=C(c1csc(N2CCN(c3ccccc3)CC2)n1)N1CCN(c2cccc(C(F)(F)F)c2)CC1 [compound 68]	+ (“+” stands for 50-80% inhibition)

Same assay, conditions: compounds of formula (Ia); TNF-α stimulated reporter cells; test concentration not given

SMILES	Biological activity (NF-κB inflammation assay, inhibition)
O=C(NCCc1cccs1)N1CCC(c2nc(C(=O)N3CCN(c4cccc(C(F)(F)F)c4)CC3)cs2)CC1 [compound 77]	+++ (“+++” stands for 90-100% inhibition)
O=C(Nc1ccc2c(c1)OCCO2)N1CCC(c2nc(C(=O)N3CCN(c4cccc(C(F)(F)F)c4)CC3)cs2)CC1 [compound 75]	++ (“++” means 80-90%)
CC(C)NC(=O)N1CCC(c2nc(C(=O)N3CCN(c4cccc(C(F)(F)F)c4)CC3)cs2)CC1 [compound 78]	+ (“+” stands for 50-80% inhibition)

Same assay, conditions: compounds of formula (Ic); TNF-α stimulated reporter cells; test concentration not given

SMILES	Biological activity (NF-κB inflammation assay, inhibition)
CNc1ccc(Cl)cc1C1c2ccccc2CCN1C(=O)c1csc(C2CCN(C(=O)c3ccccc3OC(F)(F)F)CC2)n1 (stereo not shown) [compound 150]	++ (“++” means 80-90%)
O=C(Cc1ccc(F)cc1)N1CCC(c2nc(C(=O)N3CCc4cc(O)c(O)cc4C3)cs2)CC1 [compound 160]	+ (“+” stands for 50-80% inhibition)

— patent US7601745B2, “Heterocyclic NF-kB inhibitors” (4SC AG, priority 2004, dated 2009)
